Results: US8685977B2, “Chemical compounds” (Pfizer Limited, priority 2010, dated 2014)

Target: T1, Nav1.7 (or SCN9A) channel (Homo sapiens, UniProt Q15858)
T1 construct: expressed in transfected cells
Test: Nav1.7 PatchXpress 7000 automated electrophysiology assay (HEK cells stably expressing hSCN9A)
Type: cell-based
Conditions: voltage-clamped at V1/2 of inactivation, read-out: Nav1.7 EIC50
How it was run: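 Automated whole-cell clamp (PatchXpress) of HEK cells stably expressing hSCN9A, at 22-24 °C, in extracellular buffer at pH 7.4. Cells were held at the measured V1/2 of inactivation, then stepped to 0 mV for 20 ms. Single-concentration % inhibition gave EIC50 = concentration × (100 − %inhibition)/%inhibition, excluding <20% or >80%.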

T1 sequence (Q15858 whole entry): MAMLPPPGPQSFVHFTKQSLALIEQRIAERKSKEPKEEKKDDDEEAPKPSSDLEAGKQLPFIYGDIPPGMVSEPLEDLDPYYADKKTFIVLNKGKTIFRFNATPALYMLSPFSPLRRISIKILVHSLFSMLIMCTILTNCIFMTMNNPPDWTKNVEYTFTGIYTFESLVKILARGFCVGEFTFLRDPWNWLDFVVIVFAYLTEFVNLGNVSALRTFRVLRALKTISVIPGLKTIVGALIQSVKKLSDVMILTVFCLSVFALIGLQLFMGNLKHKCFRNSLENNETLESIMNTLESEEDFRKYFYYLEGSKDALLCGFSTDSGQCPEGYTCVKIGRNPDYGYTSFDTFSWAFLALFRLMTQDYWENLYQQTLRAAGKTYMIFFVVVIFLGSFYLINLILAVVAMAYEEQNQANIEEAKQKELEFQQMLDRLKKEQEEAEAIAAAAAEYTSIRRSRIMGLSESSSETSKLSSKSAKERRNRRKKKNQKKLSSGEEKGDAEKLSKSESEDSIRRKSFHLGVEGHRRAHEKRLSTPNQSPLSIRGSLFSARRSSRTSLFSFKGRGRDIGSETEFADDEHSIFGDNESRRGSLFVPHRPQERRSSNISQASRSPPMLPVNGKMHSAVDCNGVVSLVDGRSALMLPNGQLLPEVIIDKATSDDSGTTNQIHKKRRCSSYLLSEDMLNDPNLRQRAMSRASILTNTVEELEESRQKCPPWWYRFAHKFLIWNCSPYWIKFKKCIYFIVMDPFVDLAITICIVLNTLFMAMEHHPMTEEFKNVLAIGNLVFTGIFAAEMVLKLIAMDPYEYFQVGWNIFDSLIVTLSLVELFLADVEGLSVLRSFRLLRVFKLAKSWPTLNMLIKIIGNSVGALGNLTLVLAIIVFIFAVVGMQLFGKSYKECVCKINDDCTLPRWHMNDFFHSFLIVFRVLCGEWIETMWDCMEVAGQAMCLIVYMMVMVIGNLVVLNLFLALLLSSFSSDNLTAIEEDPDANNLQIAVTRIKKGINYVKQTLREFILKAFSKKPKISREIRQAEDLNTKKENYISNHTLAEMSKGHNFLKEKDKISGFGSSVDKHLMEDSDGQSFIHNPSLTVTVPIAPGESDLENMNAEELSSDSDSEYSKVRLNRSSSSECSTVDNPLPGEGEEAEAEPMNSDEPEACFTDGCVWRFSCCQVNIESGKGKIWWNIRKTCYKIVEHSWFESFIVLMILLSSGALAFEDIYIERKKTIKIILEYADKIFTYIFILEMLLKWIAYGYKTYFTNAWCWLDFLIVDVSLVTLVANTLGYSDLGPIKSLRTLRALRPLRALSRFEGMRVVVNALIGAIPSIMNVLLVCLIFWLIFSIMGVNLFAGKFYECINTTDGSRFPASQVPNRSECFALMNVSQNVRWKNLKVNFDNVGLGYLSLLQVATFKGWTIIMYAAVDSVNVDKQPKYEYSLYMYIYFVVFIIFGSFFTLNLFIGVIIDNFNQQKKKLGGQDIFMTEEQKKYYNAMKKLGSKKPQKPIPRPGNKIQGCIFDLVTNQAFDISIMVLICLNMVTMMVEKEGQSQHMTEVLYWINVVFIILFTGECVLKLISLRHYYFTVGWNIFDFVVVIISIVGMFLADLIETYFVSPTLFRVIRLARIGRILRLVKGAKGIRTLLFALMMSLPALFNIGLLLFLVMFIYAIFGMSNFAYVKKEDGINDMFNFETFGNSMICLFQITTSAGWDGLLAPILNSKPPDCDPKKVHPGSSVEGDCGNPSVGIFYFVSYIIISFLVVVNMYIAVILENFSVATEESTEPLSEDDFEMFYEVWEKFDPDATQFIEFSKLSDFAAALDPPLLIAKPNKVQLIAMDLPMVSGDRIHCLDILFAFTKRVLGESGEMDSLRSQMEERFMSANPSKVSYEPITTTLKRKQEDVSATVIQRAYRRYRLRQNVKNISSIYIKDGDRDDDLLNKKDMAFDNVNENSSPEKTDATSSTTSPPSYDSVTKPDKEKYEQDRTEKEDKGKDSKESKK

SMILES | IC50 [µM]
Cc1ccc(F)cc1Oc1ccc(C(=O)NS(C)(=O)=O)cc1 [Example 179, 4-(5-fluoro-2-methylphenoxy)-N-(methylsulfonyl)benzamide] | > 10
Cc1ccc(Cl)c(Oc2ccc(C(=O)NS(C)(=O)=O)cc2)c1 [Example 180, 4-(2-chloro-5-methylphenoxy)-N-(methylsulfonyl)benzamide] | 32
CC(C)c1cccc(Oc2ccc(C(=O)NS(C)(=O)=O)cc2)c1 [Example 181, 4-(3-isopropylphenoxy)-N-(methylsulfonyl)benzamide] | 1.6
CS(=O)(=O)NC(=O)c1ccc(Oc2ccc(Cl)c(Cl)c2)cc1 [Example 182, 4-(3,4-dichlorophenoxy)-N-(methylsulfonyl)benzamide] | 1.4
COc1ccc(Oc2ccc(C(=O)NS(C)(=O)=O)cc2)c(Cl)c1 [Example 183, 4-(2-chloro-4-methoxyphenoxy)-N-(methylsulfonyl)benzamide] | > 10
Cc1cccc(Oc2ccc(C(=O)NS(C)(=O)=O)cc2)c1C [Example 184, 4-(2,3-dimethylphenoxy)-N-(methylsulfonyl)benzamide] | 24
COc1ccc(C)cc1Oc1ccc(C(=O)NS(C)(=O)=O)cc1 [Example 185, 4-(2-methoxy-5-methylphenoxy)-N-(methylsulfonyl)benzamide] | 21
COc1ccc(Oc2ccc(C(=O)NS(C)(=O)=O)cc2)cc1 [Example 186, 4-(4-methoxyphenoxy)-N-(methylsulfonyl)benzamide] | 34
COc1ccc(F)cc1Oc1ccc(C(=O)NS(C)(=O)=O)cc1 [Example 188, 4-(5-fluoro-2-methoxyphenoxy)-N-(methylsulfonyl)benzamide] | > 10
COc1cc(C)ccc1Oc1ccc(C(=O)NS(C)(=O)=O)cc1 [Example 189, 4-(2-methoxy-4-methylphenoxy)-N-(methylsulfonyl)benzamide] | > 10
Cc1ccccc1Oc1ccc(C(=O)NS(C)(=O)=O)cc1 [Example 191, 4-(2-methylphenoxy)-N-(methylsulfonyl)benzamide] | > 10
CS(=O)(=O)NC(=O)c1ccc(Oc2cc(F)cc(F)c2)cc1 [Example 192, 4-(3,5-difluorophenoxy)-N-(methylsulfonyl)benzamide] | 14
Cc1cccc(C)c1Oc1ccc(C(=O)NS(C)(=O)=O)cc1 [Example 193, 4-(2,6-dimethylphenoxy)-N-(methylsulfonyl)benzamide] | > 10
COc1ccc(Cl)c(Oc2ccc(C(=O)NS(C)(=O)=O)cc2)c1 [Example 194, 4-(2-chloro-5-methoxyphenoxy)-N-(methylsulfonyl)benzamide] | > 10
CS(=O)(=O)NC(=O)c1ccc(Oc2cccc(F)c2F)cc1 [Example 195, 4-(2,3-difluorophenoxy)-N-(methylsulfonyl)benzamide] | 22
COc1ccc(Oc2ccc(C(=O)NS(C)(=O)=O)cc2)c(F)c1F [Example 196, 4-(2,3-difluoro-4-methoxyphenoxy)-N-(methylsulfonyl)benzamide] | 11
Cn1ccc(-c2ccccc2Oc2ccc(C(=O)NS(C)(=O)=O)cc2)n1 [Example 197, 4-[2-(1-methyl-1H-pyrazol-3-yl)phenoxy]-N-(methylsulfonyl)benzamide] | > 10
Cc1ccc(Oc2ccc(C(=O)NS(C)(=O)=O)cc2)cc1Cl [Example 198, 4-(3-chloro-4-methylphenoxy)-N-(methylsulfonyl)benzamide] | 1.4
Cc1cc(Oc2ccc(C(=O)NS(C)(=O)=O)cc2)ccc1F [Example 199, 4-(4-fluoro-3-methylphenoxy)-N-(methylsulfonyl)benzamide] | 7.6
CS(=O)(=O)NC(=O)c1ccc(Oc2ccc(F)c(Cl)c2)cc1 [Example 200, 4-(3-chloro-4-fluorophenoxy)-N-(methylsulfonyl)benzamide] | 8.1
Cc1cc(F)ccc1Oc1ccc(C(=O)NS(C)(=O)=O)cc1 [Example 201, 4-(4-fluoro-2-methylphenoxy)-N-(methylsulfonyl)benzamide] | 20
CS(=O)(=O)NC(=O)c1ccc(Oc2cccc(Cl)c2)cc1 [Example 202, 4-(3-chlorophenoxy)-N-(methylsulfonyl)benzamide] | 6.9
Cc1ccc(Oc2ccc(C(=O)NS(C)(=O)=O)cc2)c(Cl)c1 [Example 203, 4-(2-chloro-4-methylphenoxy)-N-(methylsulfonyl)benzamide] | 25
COc1cc(C)cc(Oc2ccc(C(=O)NS(C)(=O)=O)cc2)c1 [Example 204, 4-(3-methoxy-5-methylphenoxy)-N-(methylsulfonyl)benzamide] | 21
Cc1ccc(F)c(Oc2ccc(C(=O)NS(C)(=O)=O)cc2)c1 [Example 205, 4-(2-fluoro-5-methylphenoxy)-N-(methylsulfonyl)benzamide] | 15

SMILES | IC50 [µM]
Cc1cc(Cl)ccc1Oc1ccc(C(=O)NS(C)(=O)=O)cc1 [Example 206, 4-(4-chloro-2-methylphenoxy)-N-(methylsulfonyl)benzamide] | 18
COc1cc(Oc2cccc(Cl)c2)ccc1C(=O)NS(C)(=O)=O [Example 213, 4-(3-chlorophenoxy)-2-methoxy-N-(methylsulfonyl)benzamide] | > 3
CS(=O)(=O)NC(=O)c1ccc(Oc2ccc(Cl)cc2)c(Cl)c1 [Example 214, 3-chloro-4-(4-chlorophenoxy)-N-(methylsulfonyl)benzamide] | 0.22
Cc1ccc(Oc2ccc(C(=O)NS(C)(=O)=O)cc2Cl)cc1 [Example 215, 3-chloro-4-(4-methylphenoxy)-N-(methylsulfonyl)benzamide] | 1.3
COc1cc(Oc2ccc(F)c(C)c2)ccc1C(=O)NS(C)(=O)=O [Example 216, 4-(4-fluoro-3-methylphenoxy)-2-methoxy-N-(methylsulfonyl)benzamide] | 11
Cc1ccc(Oc2ccc(C(=O)NS(C)(=O)=O)cc2F)cc1 [Example 217, 3-fluoro-4-(4-methylphenoxy)-N-(methylsulfonyl)benzamide] | 4.2
Cc1cc(Oc2ccc(C(=O)NS(C)(=O)=O)cc2F)ccc1F [Example 218, 3-fluoro-4-(4-fluoro-3-methylphenoxy)-N-(methylsulfonyl)benzamide] | 2.8
CS(=O)(=O)NC(=O)c1ccc(Oc2ccc(Cl)c(F)c2)cc1 [Example 220, 4-(4-chloro-3-fluorophenoxy)-N-(methylsulfonyl)benzamide] | 1.8
CS(=O)(=O)NC(=O)c1ccc(Oc2cccc(Cl)c2)c(F)c1 [Example 223, 4-(3-chlorophenoxy)-3-fluoro-N-(methylsulfonyl)benzamide] | 2.4
COc1c(C(=O)NS(C)(=O)=O)ccc(Oc2cccc(Cl)c2)c1F [Example 225, 4-(3-chlorophenoxy)-3-fluoro-2-methoxy-N-(methylsulfonyl)benzamide] | 3.3
COc1cc(Oc2ccc(Cl)c(F)c2)ccc1C(=O)NS(C)(=O)=O [Example 228, 4-(4-chloro-3-fluorophenoxy)-2-methoxy-N-(methylsulfonyl)benzamide] | 5.4
CS(=O)(=O)NC(=O)c1ccc(Oc2ccc(Cl)cc2)c(F)c1 [Example 229, 4-(4-chlorophenoxy)-3-fluoro-N-(methylsulfonyl)benzamide] | 1.2
COc1c(C(=O)NS(C)(=O)=O)ccc(Oc2ccc(Cl)c(C)c2)c1F [Example 230, 4-(4-chloro-3-methylphenoxy)-3-fluoro-2-methoxy-N-(methylsulfonyl)benzamide] | 0.86
COc1cc(Oc2ccc(Cl)c(C)c2)ccc1C(=O)NS(C)(=O)=O [Example 231, 4-(4-chloro-3-methylphenoxy)-2-methoxy-N-(methylsulfonyl)benzamide] | 3.9
COc1cc(Oc2ccc(F)c(Cl)c2)ccc1C(=O)NS(C)(=O)=O [Example 233, 4-(3-chloro-4-fluorophenoxy)-2-methoxy-N-(methylsulfonyl)benzamide] | 8.2
COc1c(C(=O)NS(C)(=O)=O)ccc(Oc2ccc(Cl)c(Cl)c2)c1F [Example 234, 4-(3,4-dichlorophenoxy)-3-fluoro-2-methoxy-N-(methylsulfonyl)benzamide] | 0.85
Cc1cc(C(=O)NS(C)(=O)=O)ccc1Oc1ccc(F)cc1 [Example 237, 4-(4-fluorophenoxy)-3-methyl-N-(methylsulfonyl)benzamide] | 2.5
Cc1cc(C(=O)NS(C)(=O)=O)ccc1Oc1cccc(Cl)c1 [Example 238, 4-(3-chlorophenoxy)-3-methyl-N-(methylsulfonyl)benzamide] | 0.96
Cc1cc(C(=O)NS(C)(=O)=O)ccc1Oc1ccc(Cl)cc1 [Example 240, 4-(4-chlorophenoxy)-3-methyl-N-(methylsulfonyl)benzamide] | 0.63
CS(=O)(=O)NC(=O)c1ccc(Oc2ccc(-c3ccccc3)cc2)cc1 [Example 245, 4-(biphenyl-4-yloxy)-N-(methylsulfonyl)benzamide] | 1.3
CS(=O)(=O)NC(=O)c1ccc(Oc2ccc3ccccc3c2)c(Cl)c1 [Example 246, 3-chloro-N-(methylsulfonyl)-4-(2-naphthyloxy)benzamide] | 0.49
CS(=O)(=O)NC(=O)c1ccc(Oc2ccccc2Cl)c(Cl)c1 [Example 248, 3-chloro-4-(2-chlorophenoxy)-N-(methylsulfonyl)benzamide] | 1.7
Cc1cccc(Oc2ccc(C(=O)NS(C)(=O)=O)cc2Cl)c1 [Example 250, 3-chloro-4-(3-methylphenoxy)-N-(methylsulfonyl)benzamide] | 1.4
CS(=O)(=O)NC(=O)c1ccc(Oc2ccccc2)c(Cl)c1 [Example 252, 3-chloro-N-(methylsulfonyl)-4-phenoxybenzamide] | 1.2
CCOc1ccc(Oc2ccc(C(=O)NS(C)(=O)=O)cc2)cc1 [Example 253, 4-(4-ethoxyphenoxy)-N-(methylsulfonyl)benzamide] | 2.5
